Results as given in PubChem BioAssay AID1918936 (Molecular Pharmacology Branch, DTP, NCI, 2023).

System: 349418-098-R-PDC complex spheroid viability
Assay: Anticancer human tumor 349418-098-R-PDC patient-derived lung adenocarcinoma cell line growth inhibition
Conditions: for IC50: curve of first compound; for viability, T/C: stronger effect = lower value
Procedure, shortened: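 Drug combinations with the LSD1 inhibitor iadademstat tested on tumor cells co-cultured as spheroids with endothelial cells and mesenchymal stem cells. Concentrations descended in half-log increments from clinical Cmax or 10 microM.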

[1] = second compound 0.1 µM, first compound 0.0316 µM
[2] = second compound 0.1 µM, first compound 0.1 µM
[3] = second compound 0.1 µM, first compound 0.316 µM
[4] = second compound 0.1 µM, first compound 1 µM
[5] = second compound 0.1 µM, first compound 3.16 µM
[6] = second compound 0.1 µM, first compound 10 µM
[7] = second compound 0.316 µM, first compound 0.0316 µM
[8] = second compound 0.316 µM, first compound 0.1 µM
[9] = second compound 0.316 µM, first compound 0.316 µM
[10] = second compound 0.316 µM, first compound 1 µM
[11] = second compound 0.316 µM, first compound 3.16 µM
[12] = second compound 0.316 µM, first compound 10 µM
[13] = second compound 1 µM, first compound 0.0316 µM
[14] = second compound 1 µM, first compound 0.1 µM
[15] = second compound 1 µM, first compound 0.316 µM
[16] = second compound 1 µM, first compound 1 µM
[17] = second compound 1 µM, first compound 3.16 µM
[18] = second compound 1 µM, first compound 10 µM
[19] = second compound 3.16 µM, first compound 0.0316 µM
[20] = second compound 3.16 µM, first compound 0.1 µM
[21] = second compound 3.16 µM, first compound 0.316 µM
[22] = second compound 3.16 µM, first compound 1 µM
[23] = second compound 3.16 µM, first compound 3.16 µM
[24] = second compound 3.16 µM, first compound 10 µM
[25] = second compound 10 µM, first compound 0.0316 µM
[26] = second compound 10 µM, first compound 0.1 µM
[27] = second compound 10 µM, first compound 0.316 µM
[28] = second compound 10 µM, first compound 1 µM
[29] = second compound 10 µM, first compound 3.16 µM
[30] = second compound 10 µM, first compound 10 µM
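Further: spheroids exposed to agents for seven days before readout.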
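Wherever viability, T/C is given: 100% = DMSO vehicle control wells.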

| Compound | IC50 (second compound 0.1 µM) [nM] | IC50 (second compound 0.316 µM) [nM] | IC50 (second compound 1 µM) [nM] | IC50 (second compound 3.16 µM) [nM] | IC50 (second compound 10 µM) [nM] | viability, T/C [1] [%] | viability, T/C [2] [%] | viability, T/C [3] [%] | viability, T/C [4] [%] | viability, T/C [7] [%] | viability, T/C [8] [%] | viability, T/C [9] [%] | viability, T/C [10] [%] | viability, T/C [13] [%] | viability, T/C [14] [%] | viability, T/C [15] [%] | viability, T/C [16] [%] | viability, T/C [19] [%] | viability, T/C [20] [%] | viability, T/C [21] [%] | other results |
| --- | --- | --- | --- | --- | --- | --- | --- | --- | --- | --- | --- | --- | --- | --- | --- | --- | --- | --- | --- | --- | --- |
| CC(C)c1c(-c2ccccc2)nc2c(C#N)c[nH]n2c1=O + NC1CCC(NC2CC2c2ccccc2)CC1 | > 10000 | > 10000 | > 10000 | > 10000 | > 10000 | 108 | 112 | 93.7 | 105 | 108 | 110 | 113 | 104 | 104 | 113 | 108 | 100 | 96.4 | 92.5 | 113 | viability, T/C [5]: 104%; viability, T/C [6]: 88.1%; viability, T/C [11]: 101%; viability, T/C [12]: 98.8%; viability, T/C [17]: 104%; viability, T/C [18]: 93.8%; viability, T/C [22]: 108%; viability, T/C [23]: 102%; viability, T/C [24]: 87.3%; viability, T/C [25]: 101%; viability, T/C [26]: 84.1%; viability, T/C [27]: 108%; viability, T/C [28]: 93.6%; viability, T/C [29]: 86.4%; viability, T/C [30]: 78.7% |
| CC1COCCN1c1cc(-c2ccnn2C)c2ccnc(-c3ccn[nH]3)c2n1 (stereo not given) + NC1CCC(NC2CC2c2ccccc2)CC1 | 13.7 | 16.1 | 11.4 | 9.65 | 8.1 | 16.8 | 9.57 | 7.39 | 5.98 | 18.5 | 9.43 | 6.72 | 6.47 | 16.6 | 9.69 | 7.82 | 5.98 | 14.4 | 8.55 | 6.56 | viability, T/C (second compound 0.1 µM, first compound 0.00316 µM): 91.5%; viability, T/C (second compound 0.1 µM, first compound 0.01 µM): 62.6%; viability, T/C (second compound 0.316 µM, first compound 0.00316 µM): 108%; viability, T/C (second compound 0.316 µM, first compound 0.01 µM): 71.9%; viability, T/C (second compound 1 µM, first compound 0.00316 µM): 98.5%; viability, T/C (second compound 1 µM, first compound 0.01 µM): 54.5%; viability, T/C (second compound 3.16 µM, first compound 0.00316 µM): 98.1%; viability, T/C (second compound 3.16 µM, first compound 0.01 µM): 48.5%; viability, T/C [22]: 5.96%; viability, T/C (second compound 10 µM, first compound 0.00316 µM): 90.7%; viability, T/C (second compound 10 µM, first compound 0.01 µM): 40.9%; viability, T/C [25]: 14.5%; viability, T/C [26]: 7.6%; viability, T/C [27]: 6.06%; viability, T/C [28]: 5.03% |
| COc1ccc([C@@H](O)c2cc(-c3ncnc4cc(N5CCOCC5)ccc34)c(F)cc2Cl)nn1 + NC1CCC(NC2CC2c2ccccc2)CC1 | 423 | 471 | 468 | 520 | 299 | 102 | 109 | 52.1 | 30.2 | 112 | 95.1 | 63.3 | 26.6 | 122 | 102 | 60.6 | 28.4 | 102 | 102 | 66.4 | viability, T/C [5]: 8.02%; viability, T/C [6]: 5.61%; viability, T/C [11]: 8.83%; viability, T/C [12]: 6.71%; viability, T/C [17]: 10.5%; viability, T/C [18]: 6.33%; viability, T/C [22]: 27%; viability, T/C [23]: 10.9%; viability, T/C [24]: 5.88%; viability, T/C [25]: 98.1%; viability, T/C [26]: 78.8%; viability, T/C [27]: 48.2%; viability, T/C [28]: 23.5%; viability, T/C [29]: 9.1%; viability, T/C [30]: 5.47% |
